Experimental data taken from the NIST ThermoML archive (doi:10.1016/j.jct.2017.02.023).

Experiments:
[1] = refractive index (Na D-line) (dimensionless); xn = mol fraction of the nth substance listed; conditions: 81.5 kPa, Liquid, Standard Abbe refractometry
[2] = xn = mol fraction of the nth substance listed; conditions: 81.5 kPa, Liquid, Vibrating tube method

CNC1CCCCC1 [N-methylcyclohexylamine] + CCCC(C)O
Conditions	mass density, 298.15 K [kg/m3]	mass density, 308.15 K [kg/m3]	mass density, 318.15 K [kg/m3]	mass density, 328.15 K [kg/m3]	refractive index, 298.15 K	refractive index, 308.15 K	refractive index, 318.15 K	refractive index, 328.15 K
[1], x2 = 0	–	–	–	–	1.45306	1.44812	1.4431	1.43809
[1], x2 = 0.1044	–	–	–	–	1.45003	1.44535	1.44061	1.4359
[1], x2 = 0.2039	–	–	–	–	1.44678	1.44217	1.43745	1.43273
[1], x2 = 0.3	–	–	–	–	1.44339	1.43884	1.43417	1.42945
[1], x2 = 0.391	–	–	–	–	1.43985	1.43539	1.43078	1.42612
[1], x2 = 0.4776	–	–	–	–	1.43608	1.43168	1.42715	1.42254
[1], x2 = 0.5621	–	–	–	–	1.43195	1.42759	1.42311	1.41857
[1], x2 = 0.6395	–	–	–	–	1.42779	1.42345	1.419	1.41449
[1], x2 = 0.7115	–	–	–	–	1.42361	1.41932	1.4149	1.41042
[1], x2 = 0.7926	–	–	–	–	1.41862	1.41442	1.41007	1.40562
[1], x2 = 0.8644	–	–	–	–	1.41398	1.40989	1.40561	1.40119
[1], x2 = 0.9338	–	–	–	–	1.40928	1.40524	1.40097	1.39653
[2], x2 = 0	865.2	856.57	847.67	838.68	–	–	–	–
[2], x2 = 0.1044	861.35	852.83	844.04	835.12	–	–	–	–
[2], x2 = 0.2039	857.57	849.03	840.23	831.28	–	–	–	–
[2], x2 = 0.3	853.62	845.09	836.29	827.28	–	–	–	–
[2], x2 = 0.391	849.43	840.92	832.15	823.1	–	–	–	–
[2], x2 = 0.4776	844.86	836.35	827.59	818.52	–	–	–	–
[2], x2 = 0.5621	839.71	831.21	822.49	813.38	–	–	–	–
[2], x2 = 0.6395	834.44	825.96	817.29	808.15	–	–	–	–
[2], x2 = 0.7115	829.18	820.72	812.03	802.91	–	–	–	–
[2], x2 = 0.7926	822.85	814.43	805.84	796.73	–	–	–	–
[2], x2 = 0.8644	817.04	808.68	800.16	791.09	–	–	–	–
[2], x2 = 0.9338	811.24	802.9	794.42	785.33	–	–	–	–
